Test [1] deals with T1, human α7 nAChR (Homo sapiens, UniProt P36544).
T1 construct: expressed in transfected cells; host or cells: Xenopus laevis oocytes (cRNA injection)
The test is described as follows: α7 nAChR direct activation (agonist test), two-electrode voltage-clamp electrophysiology in Xenopus oocytes. It is filed as cell-based. The conditions noted are these: for activation at 200 µM: read-out: α7 nAChR %Activation. On the procedure: (§1) Compounds were tested for direct activation of the α7 nAChR in a 0.2–200 µM concentration range. Compounds displaying less than 1% direct activation were further evaluated at 100 µM for their ability to alter currents evoked by 30 µM ACh.
(§2) Xenopus laevis oocytes were obtained as described previously, briefly, ovary lobes were removed by surgical incision, sliced into small pieces and defolliculated by collagenase treatment. […] Stage V and VI oocytes were injected with a total of ~25 ng of cRNA encoding human α7 nAChR with RIC3 (in 5:1 ratio), a protein enhancing the expression of the receptor. Injected oocytes were incubated for 3–5 days at 18 °C in a saline solution (96 mM NaCl, 2 mM KCl, 1 mM MgCl2, 1.8 mM CaCl2, 5 mM HEPES (hemisodium, pH 7.4)) supplemented with 2.5 mM sodium pyruvate, 0.5 mM theophylline, and 50 µM gentamycin.
(§3) Electrophysiological recordings from Xenopus laevis oocytes were performed using the two-electrode voltage-clamp technique as described previously. Briefly, oocytes were placed in a custom-built recording chamber and continuously perfused with a saline solution. The saline solution contained 96 mM NaCl, 2 mM KCl, 1 mM MgCl2, 1.8 mM CaCl2, 5 mM HEPES (hemisodium, pH 7.4). Pipettes were backfilled with 3 M KCl and open-pipette resistances ranged from 0.3 to 1.5 MΩ when submerged in the saline solution. Oocytes were voltage clamped at a holding potential of −60 mV using an Axon Geneclamp 500B amplifier (Molecular Devices, LLC, San Jose, CA, USA). Rapid solution exchange in the oocyte vicinity (order of a few seconds) was ensured by application through a 1.5 mm diameter capillary tube placed approximately 2 mm from the oocyte as described previously. The solution flow rate through the capillary was 2.0 mL/min. […] Thereafter, test compounds in increasing concentration were applied (25 s), the maximal tested concentration was 200 µM. A wash period of at least 2 min was kept between each application. […] In these experiments, 10 and 100 µM concentration of a test compound was co-applied with 30 µM ACh. Peak current amplitudes were normalized with respect to the amplitude of current elicited by 3 mM or 30 µM ACh for the agonist and antagonist test, respectively. All experiments were conducted at least in triplicate.
(§4) Data analysis was performed as reported previously. […] During analysis, traces were baseline subtracted and responses to individual applications quantified as peak-current amplitudes. Statistical calculations were performed using GraphPad Prism 7 (GraphPad Software, GraphPad, San Diego, CA, USA). Activation of the α7 nAChR was calculated as a percentage of Emax response to ACh. For evaluation of the inhibitory activity, the percentage of remaining peak-current amplitudes relative to that of the AChcontrol (EC20) application was calculated. AChE inhibition data were analyzed using GraphPad Prism 7. Absorption readings from the AChE inhibition assay were plotted versus time and linear regression was performed. […] Data were fitted with the slope set to 1 and remaining current amplitude at infinitely high compound concentrations set to 0.
On the technique in general: Two-electrode voltage clamp holds a large cell at a set potential and records current.

Test [2] addresses T1, human α7 nAChR. The test is described as follows: α7 nAChR inhibition of ACh-evoked currents (antagonist test), two-electrode voltage-clamp electrophysiology in Xenopus oocytes. It is filed as cell-based. The conditions noted are these: -60 mV. As for the experimental part:
as §1, §2, §3, §4

The next test deals with T2, human recombinant AChE (Homo sapiens, UniProt P22303).
T2 construct: purchased Sigma-Aldrich Co. LLC C1682
Kind of test: biochemical. The conditions noted are these: for inhibition at 200 µM: compound soluble in MeOH; for AChE %Inhibition of supernatant (MeOH): poorly soluble compound, methanol supernatant tested, nominal 200 µM. As for the experimental part:
For five poorly soluble compounds, the methanol supernatants were tested. Ellman’s colorimetric analysis is based on the breakdown of acetylthiocholine (ATCI) by AChE to thiocholine and acetic acid. Ellman’s reagent in turn reacts with the thiol group of thiocholine resulting in a yellow color indicating the extent of enzymatic activity. […] In vitro AChE inhibitory activity was studied using the colorimetric method of Ellman using human recombinant AChE enzyme. To a 96-well microplate, test solutions were applied along with 1 mg/mL bovine serum albumin, 0.5 mM 5,5-dithiobis-(2-nitro-benzoic acid), and 0.5 mM acetylthiocholine iodide. […] Experiments were conducted in triplicate.
as §4

For a further test, the system named is α7 nAChR. The conditions noted are these: cited from earlier work.
[3] abbreviates: 200 µM, normalized to 3 mM ACh response, -60 mV.
Setting [4] is: 100 µM compound co-applied with 30 µM ACh, read-out: α7 nAChR %Inhibition.
Where [5] appears, read: five to eight concentrations, read-out: AChE IC50.

One may read the inhibition as the share of the control response that was lost under treatment.

Where “and” joins values, the source holds several entries; their conditions need not be identical. Equal entries are not always repeated. Where two headings read alike, the source gives them in different places.

T2 sequence (P22303 32-614): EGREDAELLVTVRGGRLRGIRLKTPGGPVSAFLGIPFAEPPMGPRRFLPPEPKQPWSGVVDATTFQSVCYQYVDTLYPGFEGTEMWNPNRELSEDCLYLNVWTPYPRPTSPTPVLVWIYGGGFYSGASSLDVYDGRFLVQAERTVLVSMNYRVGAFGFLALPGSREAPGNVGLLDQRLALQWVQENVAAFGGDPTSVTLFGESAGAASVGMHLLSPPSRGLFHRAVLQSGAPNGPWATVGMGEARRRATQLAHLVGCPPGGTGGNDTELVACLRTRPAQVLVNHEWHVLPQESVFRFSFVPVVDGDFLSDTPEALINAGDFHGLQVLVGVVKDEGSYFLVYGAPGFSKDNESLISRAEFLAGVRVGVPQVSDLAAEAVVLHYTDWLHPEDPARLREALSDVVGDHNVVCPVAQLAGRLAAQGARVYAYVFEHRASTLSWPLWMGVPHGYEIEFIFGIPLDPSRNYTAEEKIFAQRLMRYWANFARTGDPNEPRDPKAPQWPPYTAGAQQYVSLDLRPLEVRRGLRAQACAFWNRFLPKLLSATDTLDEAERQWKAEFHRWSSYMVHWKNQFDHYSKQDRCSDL
T1 sequence (P36544 23-502): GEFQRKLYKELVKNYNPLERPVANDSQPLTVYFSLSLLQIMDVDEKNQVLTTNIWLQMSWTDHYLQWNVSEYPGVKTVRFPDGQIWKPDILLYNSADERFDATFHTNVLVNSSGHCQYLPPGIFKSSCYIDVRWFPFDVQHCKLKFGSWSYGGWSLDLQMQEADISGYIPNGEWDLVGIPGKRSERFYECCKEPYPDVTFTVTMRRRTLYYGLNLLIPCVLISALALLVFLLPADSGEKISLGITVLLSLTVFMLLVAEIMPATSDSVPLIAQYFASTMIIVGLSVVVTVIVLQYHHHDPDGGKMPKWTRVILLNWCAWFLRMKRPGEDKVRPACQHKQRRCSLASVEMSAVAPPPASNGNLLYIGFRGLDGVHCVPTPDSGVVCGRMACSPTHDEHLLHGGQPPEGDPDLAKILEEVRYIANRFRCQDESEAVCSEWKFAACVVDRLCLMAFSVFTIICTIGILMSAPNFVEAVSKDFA

`CN(C)Cc1ccc(-c2ccc(N(C)C)nc2)nc1` [Compound 6]: at human α7 nAChR [1] (setting [3]), the activation at 200 µM was determined as 0.4%. Moreover, on human α7 nAChR [2] (setting [4]), the inhibition at 100 µM was determined as 47.2%. The inhibition at 200 µM on human recombinant AChE was 76.1%. In addition, the IC50 on human recombinant AChE (setting [5]) was 58.5 µM.
Regarding `Nc1nc(-c2ccsc2)cc(N(Cc2ccccn2)Cc2ccccn2)n1` [Compound 44, N4,N4-bis[(pyridin-2-yl)methyl]-6-(thiophen-3-yl)pyrimidine-2,4-diamine], the α7-pEC50 with α7 nAChR is listed as 6.3.
With `Cc1cccc(NC(=O)c2ccc(CN3CCCCCC3)cc2)c1C` [Compound 13], at human α7 nAChR [1] (setting [3]), the activation at 200 µM was found to be 0.7%. On human α7 nAChR [2] (setting [4]), the inhibition at 100 µM is 68%. In addition, the inhibition at 200 µM on human recombinant AChE was determined as 82.5%. Further, on human recombinant AChE (setting [5]), the IC50 was 30.2 µM.
On to `O=C(Nc1ccc(CN2CCCCC2)cc1)c1ccc(Cl)cc1` [Compound 11], for which the activation at 200 µM on human α7 nAChR [1] (setting [3]) was found to be 0.7%. Besides, the inhibition at 100 µM at human α7 nAChR [2] (setting [4]) is 73.3%. At human recombinant AChE, the “AChE %Inhibition of supernatant (MeOH)” value turned out to be 100%.
For `c1cc(-c2ccc(-c3ccc(CN4CCCC4)cn3)cc2)n[nH]1` [Compound 8] the same measures were 0.3%, 59% and 100%.
For the molecule `CC(=O)c1cccc(NC(=O)c2ccc(CN3CCCCC3)cc2)c1` [Compound 14], the activation at 200 µM on human α7 nAChR [1] (setting [3]) was 0.3%. In addition, the inhibition at 100 µM on human α7 nAChR [2] (setting [4]) was 60%. On human recombinant AChE, the inhibition at 200 µM was 100%. The IC50 at human recombinant AChE (setting [5]) came to 1.1 µM.
Turning to `C[C@H]1CCCN(Cc2ccc(NC(=O)CCc3ccc(C#N)cc3)cc2)C1` [Compound 20], the activation at 200 µM at human α7 nAChR [1] (setting [3]) is 0.3%. Further, the inhibition at 100 µM at human α7 nAChR [2] (setting [4]) was 94.3%. Also, the inhibition at 200 µM at human recombinant AChE amounted to 86%. Moreover, the IC50 on human recombinant AChE (setting [5]) stood at 33.5 µM.
For `O=C(Nc1cccc(CN2CCCC2)c1)C1=Cc2cc(Cl)ccc2OC1` [Compound 16], on human α7 nAChR [1] (setting [3]), the activation at 200 µM was found to be 1%. Further, the inhibition at 100 µM at human α7 nAChR [2] (setting [4]) was 90.7%. Moreover, the “AChE %Inhibition of supernatant (MeOH)” value at human recombinant AChE was found to be 100%.
For the molecule `Cc1cc(F)ccc1S(=O)(=O)NCc1ccc(CN2CCCC2)cc1` [Ýmir-14 (19)], the activation at 200 µM at human α7 nAChR [1] (setting [3]) amounted to 0.7%. For the same molecule, the inhibition at 100 µM on human α7 nAChR [2] (setting [4]) came out at 96%. In addition, on human recombinant AChE, the inhibition at 200 µM is 100%. Further, at human recombinant AChE (setting [5]), the IC50 is 1.32 µM.
As for `O=c1[nH]c2ccccc2c(=O)n1-c1ccc(CN2CCCC2)cc1` [Compound 12], the activation at 200 µM at human α7 nAChR [1] (setting [3]) was 0.3%. On human α7 nAChR [2] (setting [4]), the inhibition at 100 µM was 81.7%. Moreover, the “AChE %Inhibition of supernatant (MeOH)” value on human recombinant AChE is given as 63.7 ± 4.4%.
On to `Cc1nnc2ncc(-c3ccc(C(C)N(C)C)cc3)cn12` (centres unmarked) [Ýmir-2 (7), N,N-dimethyl-1-(4-(3-methyl-[1,2,4]triazolo[4,3-a]pyrimidin-6-yl)phenyl)ethan-1-amine], for which, on human α7 nAChR [1] (setting [3]), the “α7 nAChR %Activation” value is 7.0% and 7.0 ± 0.9%. Also, the activation at 200 µM on human α7 nAChR [1] turned out to be 7 ± 0.9%. Also, the inhibition at 200 µM at human recombinant AChE was determined as 98.4%. Moreover, the IC50 at human recombinant AChE (setting [5]) came out at 2.58 µM.
As to `CC(=O)c1cccc(NC(=O)c2ccc(CN3CCCCCC3)cc2)c1` [Compound 18], the activation at 200 µM on human α7 nAChR [1] (setting [3]) amounted to 0.7%. Also, the inhibition at 100 µM on human α7 nAChR [2] (setting [4]) worked out at 68.7%. Also, the inhibition at 200 µM on human recombinant AChE is 91.6%. In addition, the IC50 at human recombinant AChE (setting [5]) was determined as 17.9 µM.
Turning to `O=C(Nc1nc(CN2CCCCC2)cs1)c1cc(O)nc2ccccc12` [Ýmir-16 (21)], the activation at 200 µM on human α7 nAChR [1] (setting [3]) stood at 0.3%. In addition, the “α7 nAChR %Inhibition” value on human α7 nAChR [2] (100 µM compound co-applied with 30 µM ACh) came to 97.3 ± 1%. Also, the inhibition at 100 µM at human α7 nAChR [2] (read-out: α7 nAChR %Inhibition, 100 µM compound co-applied with 30 µM ACh) stood at 97%. The inhibition at 200 µM at human recombinant AChE turned out to be 87.7%. Moreover, the IC50 was 7.76 µM on human recombinant AChE (setting [5]) and 7.94 µM at human recombinant AChE (read-out: AChE pIC50 ± SEM (converted)).
With `CN(C(=O)Cc1ccsc1)[C@H]1CCC[C@H](N2CCCC2)[C@H]1O` [Compound 17], the inhibition at 200 µM on human recombinant AChE came out at 22.9%.
For the molecule `O=C(Nc1cccc(CN2CCCCC2)c1)c1ccccc1F` [Compound 10], the activation at 200 µM at human α7 nAChR [1] (setting [3]) amounted to 0.3%. The inhibition at 100 µM at human α7 nAChR [2] (setting [4]) was determined as 85%. Further, the inhibition at 200 µM at human recombinant AChE was found to be 90.8%. The IC50 on human recombinant AChE (setting [5]) was 11.3 µM.
Consider `O[C@@H]1c2ccc(-c3cccnc3)cc2OC[C@H]1N1CCCC1` [Compound 9], for which the activation at 200 µM on human α7 nAChR [1] (setting [3]) was determined as 1%. For the same molecule, the inhibition at 100 µM at human α7 nAChR [2] (setting [4]) is 66.7%. On human recombinant AChE, the “AChE %Inhibition of supernatant (MeOH)” value stood at 45.9 ± 3.8%.
Consider `Cc1ccc2cc(NC(=O)NCCN3CCCC3)ccc2n1` [Ýmir-10 (15)], for which the “α7 nAChR %Activation” value at human α7 nAChR [1] (setting [3]) was 2.3% and 2.3 ± 0.4%. On human α7 nAChR [1], the activation at 200 µM came to 2.3 ± 0.4%. For the same molecule, at human recombinant AChE, the inhibition at 200 µM was found to be 66.6%. In addition, on human recombinant AChE (setting [5]), the IC50 was determined as 115 µM.
